Measurements taken from patent US7638600B2 (priority 2004, dated 2009).
Converted amounts (≈) assume the structure as drawn.

Key:
[1] = test system: RSVF1/pDG148::gp41; experiment: microbe, parasite or virus in culture; type: cell-based, B. cereus
[2] = test system: RSVF1; experiment: microbe, parasite or virus in culture; type: cell-based, B. cereus; conditions: Bacillus cereus, read-out: MIC for fosfomycin
[3] = test system: RSVF1/pDG148; experiment: microbe, parasite or virus in culture; type: cell-based, B. cereus; conditions: Bacillus cereus, read-out: MIC for fosfomycin
[4] = test system: spores; type: cell-based

Question: With `C[C@@H]1O[C@@H]1P(=O)(O)O` [fosfomycin] as the compound, how does the “increase in resistance to the antibiotic fosfomycin” value [1] read?
Answer: 4 log

Question: What about the MIC ([1]; Bacillus cereus, read-out: MIC for fosfomycin) of the same compound?
Answer: 500 µg/mL (≈ 3620 µM)

Question: And the MIC [2]?
Answer: 62.5 µg/mL (≈ 453 µM)

Question: And the MIC [3]?
Answer: 62.5 µg/mL (≈ 453 µM)

Question: For `C[C@@H](N)C(=O)O` [D-alanine], which germination frequency [4] is on record?
Answer: < 10%

Question: For `C[C@H](N)C(=O)O` [L-alanine], which “spores converted to heat sensitive forms” value [4] is on record?
Answer: > 99%
